Drawing on ChEMBL document CHEMBL1144083, “Phenylvaleric acid and flavonoid glycosides from Polygonum salicifolium” (J Nat Prod, 1999), this text covers Activity for 7 compounds.

Holding throughout (format): functional
For assay [1], the system named is Radical scavenging activity. Kind of assay: Antioxidant activity assessed as DPPH free radical scavenging activity at 4 ug by TLC autographic assay.
Assay [2] relates to Radical scavenging activity. The assay can be described thus: Antioxidant activity assessed as DPPH free radical scavenging activity at 2 ug by TLC autographic assay.
In assay [3] the test system is Radical scavenging activity. The assay can be described thus: Antioxidant activity assessed as DPPH free radical scavenging activity at 6 ug by TLC autographic assay.
Assay [4] has as its system Radical scavenging activity. Kind of assay: Antioxidant activity assessed as DPPH free radical scavenging activity at 8 ug by TLC autographic assay.
The test system of assay [5] is Radical scavenging activity. Kind of assay: Antioxidant activity assessed as DPPH free radical scavenging activity by TLC autographic assay.

Activity calls are given as the source filed them. No cut-off for these calls is given here.

In the case of `O=c1c(O[C@@H]2O[C@H](CO)[C@@H](O)[C@H](O)[C@H]2O)c(-c2ccc(O)c(O)c2)oc2cc(O)cc(O)c12`, the outcome in assay [1], in assay [2], in assay [3] and in assay [4] was Active.

As for `O=c1c(O[C@@H]2O[C@H](CO)[C@H](O)[C@H](O)[C@H]2O)c(-c2ccc(O)c(O)c2)oc2cc(O)cc(O)c12`, the result in assay [1], in assay [2], in assay [3] and in assay [4] was Active.

Regarding `O=C(O)C[C@@H](CCc1ccccc1)O[C@H]1O[C@@H](CO)[C@H](O)[C@@H](O)[C@@H]1O`, in assay [5], the outcome was inactive.

With `O=C(O)[C@H]1O[C@@H](Oc2c(-c3ccc(O)c(O)c3)oc3cc(O)cc(O)c3c2=O)[C@H](O)[C@@H](O)[C@@H]1O`, the outcome in assay [1], in assay [2], in assay [3] and in assay [4] was Active.

On to `COc1cc(O[C@@H]2O[C@H](CO[C@@H]3O[C@H](CO)[C@@H](O)[C@H](O)[C@H]3O)[C@@H](O)[C@H](O)[C@H]2O)c(OC)c(O)c1C(=O)CCc1ccccc1`, for which the outcome in assay [5] was inactive.

For the compound `O=C(O[C@H]1[C@H](Oc2c(-c3ccc(O)c(O)c3)oc3cc(O)cc(O)c3c2=O)O[C@H](CO)[C@@H](O)[C@@H]1O)c1cc(O)c(O)c(O)c1`, the result in assay [1], in assay [2], in assay [3] and in assay [4] was Active.

On to `CCCCOC(=O)C[C@@H](CCc1ccccc1)O[C@H]1O[C@@H](CO)[C@H](O)[C@@H](O)[C@@H]1O`, for which the result in assay [5] was inactive.
